Consider eight compounds from ChEMBL document CHEMBL1208692, “A specific and direct comparison of the trifluoromethyl and pentafluoro sulfanyl groups on the selective dopamine D(3) antagonist 3-(3-{[4-methyl-5-(4-methyl-1,3-oxazol-5-yl)-4H-1,2,4-triazol-3-yl]thio}propyl)-1-phenyl-3-azabicyclo[3.1.0]hexane template” (Bioorg Med Chem Lett, 2010).

For series [1], the target named is D(3) dopamine receptor (Homo sapiens, UniProt P35462). Put plainly: Antagonist activity at dopamine D3 receptor assessed as inhibition of dopamine-induced [35S]GTPgammaS binding […]. It is filed as functional. A general note: GTPγS resists hydrolysis and so accumulates on activated G proteins.
The target in series [2] is D(2) dopamine receptor (Homo sapiens, UniProt P14416). Put plainly: Antagonist activity at dopamine D2 receptor assessed as inhibition of dopamine-induced [35S]GTPgammaS binding […]. It is filed as functional.
Series [3] concerns the target T1, Cytochrome P450 1A2 (Homo sapiens, UniProt P05177).
T1 sequence (P05177 whole entry): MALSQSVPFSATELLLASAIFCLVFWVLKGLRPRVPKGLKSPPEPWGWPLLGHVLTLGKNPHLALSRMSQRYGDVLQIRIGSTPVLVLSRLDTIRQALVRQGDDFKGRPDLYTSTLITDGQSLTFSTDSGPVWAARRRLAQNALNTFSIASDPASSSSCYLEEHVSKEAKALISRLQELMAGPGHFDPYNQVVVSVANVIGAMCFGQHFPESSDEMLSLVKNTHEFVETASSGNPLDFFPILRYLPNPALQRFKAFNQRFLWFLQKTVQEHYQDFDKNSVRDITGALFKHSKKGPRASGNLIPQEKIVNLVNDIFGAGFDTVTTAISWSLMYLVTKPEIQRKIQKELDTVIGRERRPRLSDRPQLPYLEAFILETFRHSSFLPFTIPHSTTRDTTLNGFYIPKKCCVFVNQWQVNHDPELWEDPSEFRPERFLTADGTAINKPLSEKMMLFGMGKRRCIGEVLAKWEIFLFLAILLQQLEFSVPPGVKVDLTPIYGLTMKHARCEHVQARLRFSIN
Put plainly: Inhibition of CYP1A2. It counts as ADME.

Series [4] addresses Cytochrome P450 2C9 (Homo sapiens, UniProt P11712). Put plainly: Inhibition of CYP2C9. It counts as ADME.
Series [5] concerns the target Cytochrome P450 2C19 (Homo sapiens, UniProt P33261). Put plainly: Inhibition of CYP2C19. It is filed as ADME.
Series [6] concerns the target Cytochrome P450 2D6 (Homo sapiens, UniProt P10635). Put plainly: Inhibition of CYP2D6. It counts as ADME.
Series [7] deals with T2, Cytochrome P450 3A4 (Homo sapiens, UniProt P08684). Put plainly: Inhibition of CYP3A4 using diethoxyfluorescein as substrate. It is filed as ADME.
In series [8] the target is T2, Cytochrome P450 3A4. As to the kind of experiment: Inhibition of CYP3A4 using 7-benzyloxyquinoline as substrate. It counts as ADME.
The target in series [9] is Voltage-gated inwardly rectifying potassium channel KCNH2 (Homo sapiens, UniProt Q12809).
The nature of series [10]: Blood clearance in rat. Particulars: whole blood. It is filed as ADME, organism-based.
The nature of series [11]: Half life in rat. Particulars: in vivo. It is filed as ADME, organism-based.
A short description of series [12]: Volume of distribution in rat. It counts as ADME, organism-based. The conditions noted are these: in vivo.
Series [13] can be described thus: Bioavailability in rat. The conditions noted are these: in vivo. It counts as ADME, organism-based.
Series [14] in a line: Tmax in rat. It counts as ADME, organism-based. The conditions noted are these: in vivo.
A short description of series [15]: Ratio of drug level in brain to blood in rat. Particulars: read-out: BBR. It counts as ADME, tissue-based.

T2 sequence (P08684 whole entry): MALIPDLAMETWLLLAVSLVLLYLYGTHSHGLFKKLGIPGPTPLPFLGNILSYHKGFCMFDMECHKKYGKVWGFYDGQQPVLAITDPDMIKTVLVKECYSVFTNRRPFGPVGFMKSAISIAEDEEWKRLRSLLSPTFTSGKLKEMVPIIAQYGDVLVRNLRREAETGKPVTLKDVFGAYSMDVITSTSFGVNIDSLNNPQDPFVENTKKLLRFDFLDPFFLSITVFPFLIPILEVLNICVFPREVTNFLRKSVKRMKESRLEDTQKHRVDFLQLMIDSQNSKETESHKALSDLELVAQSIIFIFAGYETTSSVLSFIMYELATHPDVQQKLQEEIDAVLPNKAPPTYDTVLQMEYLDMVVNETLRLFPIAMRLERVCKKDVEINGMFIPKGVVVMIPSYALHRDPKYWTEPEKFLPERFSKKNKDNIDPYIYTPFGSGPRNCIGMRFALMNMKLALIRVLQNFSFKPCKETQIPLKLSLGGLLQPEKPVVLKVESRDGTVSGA
Sequence of Voltage-gated inwardly rectifying potassium channel KCNH2 (Q12809 whole entry): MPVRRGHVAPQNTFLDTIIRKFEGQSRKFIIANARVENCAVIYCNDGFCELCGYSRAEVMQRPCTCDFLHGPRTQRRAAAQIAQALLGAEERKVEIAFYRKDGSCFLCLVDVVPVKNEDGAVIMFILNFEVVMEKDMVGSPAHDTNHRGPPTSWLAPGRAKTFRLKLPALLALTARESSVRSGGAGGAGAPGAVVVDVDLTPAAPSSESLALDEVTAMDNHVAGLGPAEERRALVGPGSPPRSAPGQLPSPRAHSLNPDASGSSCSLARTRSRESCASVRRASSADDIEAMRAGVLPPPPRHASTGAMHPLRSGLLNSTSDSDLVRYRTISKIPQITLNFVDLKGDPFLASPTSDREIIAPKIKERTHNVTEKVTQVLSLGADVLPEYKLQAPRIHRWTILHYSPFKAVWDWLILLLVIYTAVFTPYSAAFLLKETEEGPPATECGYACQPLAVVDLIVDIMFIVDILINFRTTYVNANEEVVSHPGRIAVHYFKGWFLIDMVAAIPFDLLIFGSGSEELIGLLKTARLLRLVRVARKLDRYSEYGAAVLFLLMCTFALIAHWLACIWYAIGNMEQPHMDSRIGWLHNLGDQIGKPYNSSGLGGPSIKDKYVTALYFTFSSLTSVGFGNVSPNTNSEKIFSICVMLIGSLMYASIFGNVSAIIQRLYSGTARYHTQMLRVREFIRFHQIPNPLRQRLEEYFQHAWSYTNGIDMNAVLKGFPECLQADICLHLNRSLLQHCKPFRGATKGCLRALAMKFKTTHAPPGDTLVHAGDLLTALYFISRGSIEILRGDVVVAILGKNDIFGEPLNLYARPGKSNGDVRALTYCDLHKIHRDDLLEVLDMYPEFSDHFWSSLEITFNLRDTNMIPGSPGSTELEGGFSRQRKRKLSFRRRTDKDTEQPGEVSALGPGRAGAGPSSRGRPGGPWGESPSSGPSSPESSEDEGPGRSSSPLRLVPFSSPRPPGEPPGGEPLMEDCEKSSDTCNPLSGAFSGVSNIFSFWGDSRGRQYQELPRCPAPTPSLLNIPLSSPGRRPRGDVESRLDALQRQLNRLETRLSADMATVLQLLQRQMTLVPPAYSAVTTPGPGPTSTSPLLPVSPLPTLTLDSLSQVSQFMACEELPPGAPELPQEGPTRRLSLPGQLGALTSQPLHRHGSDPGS
Sequence of Cytochrome P450 2D6 (P10635 whole entry): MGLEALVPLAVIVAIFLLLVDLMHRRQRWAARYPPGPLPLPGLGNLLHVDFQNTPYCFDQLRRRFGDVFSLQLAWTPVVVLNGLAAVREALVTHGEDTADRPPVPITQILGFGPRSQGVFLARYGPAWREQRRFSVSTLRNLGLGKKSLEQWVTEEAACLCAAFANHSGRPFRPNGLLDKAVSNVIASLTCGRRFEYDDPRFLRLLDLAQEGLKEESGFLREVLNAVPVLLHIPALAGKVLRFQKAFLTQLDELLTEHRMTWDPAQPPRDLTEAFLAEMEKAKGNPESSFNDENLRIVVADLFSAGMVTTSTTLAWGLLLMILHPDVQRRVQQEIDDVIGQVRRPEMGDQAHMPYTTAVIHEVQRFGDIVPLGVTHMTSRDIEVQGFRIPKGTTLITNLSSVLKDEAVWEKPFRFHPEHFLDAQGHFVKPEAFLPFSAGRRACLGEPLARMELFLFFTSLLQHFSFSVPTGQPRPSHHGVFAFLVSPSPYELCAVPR
Sequence of D(3) dopamine receptor (P35462 whole entry): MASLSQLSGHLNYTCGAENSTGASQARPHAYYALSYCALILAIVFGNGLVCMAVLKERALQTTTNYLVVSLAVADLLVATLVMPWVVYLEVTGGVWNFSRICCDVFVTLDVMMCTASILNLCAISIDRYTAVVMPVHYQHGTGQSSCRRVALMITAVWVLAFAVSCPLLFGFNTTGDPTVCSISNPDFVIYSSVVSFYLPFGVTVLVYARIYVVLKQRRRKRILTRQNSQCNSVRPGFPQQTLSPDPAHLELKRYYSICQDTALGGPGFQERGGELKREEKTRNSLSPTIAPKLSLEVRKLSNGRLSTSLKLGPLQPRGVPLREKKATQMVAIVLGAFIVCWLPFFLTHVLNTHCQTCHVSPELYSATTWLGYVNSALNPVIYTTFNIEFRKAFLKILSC
Sequence of Cytochrome P450 2C19 (P33261 whole entry): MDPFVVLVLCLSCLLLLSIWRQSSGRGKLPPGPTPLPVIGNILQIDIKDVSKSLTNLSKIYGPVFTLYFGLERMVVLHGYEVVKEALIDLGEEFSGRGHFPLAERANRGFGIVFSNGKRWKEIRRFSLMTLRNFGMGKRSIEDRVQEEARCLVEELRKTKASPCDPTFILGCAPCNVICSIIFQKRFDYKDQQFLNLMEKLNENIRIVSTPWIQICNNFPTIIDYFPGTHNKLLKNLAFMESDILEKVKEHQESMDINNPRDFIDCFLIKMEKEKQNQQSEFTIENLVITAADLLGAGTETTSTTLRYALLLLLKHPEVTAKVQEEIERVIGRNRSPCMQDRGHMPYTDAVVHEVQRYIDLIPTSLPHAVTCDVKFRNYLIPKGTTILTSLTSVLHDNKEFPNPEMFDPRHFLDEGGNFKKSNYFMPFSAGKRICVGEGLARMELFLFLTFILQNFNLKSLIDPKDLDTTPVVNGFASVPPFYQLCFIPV
Sequence of D(2) dopamine receptor (P14416 whole entry): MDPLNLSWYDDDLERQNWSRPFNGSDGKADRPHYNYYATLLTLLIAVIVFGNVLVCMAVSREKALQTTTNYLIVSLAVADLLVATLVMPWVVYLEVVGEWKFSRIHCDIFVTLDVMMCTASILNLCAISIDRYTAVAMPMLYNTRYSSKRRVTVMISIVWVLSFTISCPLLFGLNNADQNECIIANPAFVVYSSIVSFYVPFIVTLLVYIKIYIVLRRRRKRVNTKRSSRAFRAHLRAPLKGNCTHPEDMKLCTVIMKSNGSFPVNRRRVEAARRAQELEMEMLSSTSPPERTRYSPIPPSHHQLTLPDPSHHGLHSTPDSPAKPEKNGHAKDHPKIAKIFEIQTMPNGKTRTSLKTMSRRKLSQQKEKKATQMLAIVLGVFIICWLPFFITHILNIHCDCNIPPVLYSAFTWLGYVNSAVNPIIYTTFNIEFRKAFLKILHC
Sequence of Cytochrome P450 2C9 (P11712 whole entry): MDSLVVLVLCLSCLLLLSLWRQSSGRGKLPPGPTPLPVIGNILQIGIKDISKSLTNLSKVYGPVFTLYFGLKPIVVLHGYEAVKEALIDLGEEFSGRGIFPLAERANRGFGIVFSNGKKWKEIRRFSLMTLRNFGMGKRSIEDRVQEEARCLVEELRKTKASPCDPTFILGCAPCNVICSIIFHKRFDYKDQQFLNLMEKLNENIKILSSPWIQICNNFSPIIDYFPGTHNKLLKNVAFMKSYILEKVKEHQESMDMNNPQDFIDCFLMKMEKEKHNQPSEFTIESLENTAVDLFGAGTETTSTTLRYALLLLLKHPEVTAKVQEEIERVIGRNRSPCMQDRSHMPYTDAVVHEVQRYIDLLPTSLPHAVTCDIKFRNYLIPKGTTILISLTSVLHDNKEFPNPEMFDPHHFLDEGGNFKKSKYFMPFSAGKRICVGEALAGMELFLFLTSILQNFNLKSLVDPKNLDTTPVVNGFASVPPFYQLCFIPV

In the case of `Cc1ncoc1-c1nnc(SCCCN2CC3CC3(c3cccc(S(F)(F)(F)(F)F)c3)C2)n1C` (racemic), the Ki (as a rule, the equilibrium dissociation constant of an inhibitor or competing ligand from its target) in [1] was 0.00126 µM; in series [2] it was 0.126 µM. The concentration for half-maximal inhibition (IC50) – broadly, the concentration at which inhibition is half-maximal – is over 10 µM in series [3]; 4 µM in series [4]; 9 µM in series [5]; 3 µM in series [6]; over 10 µM in series [7]; over 10 µM in series [8]. This compound also gave a concentration for half-maximal inhibition (IC50) in [9] of 1 µM.
For the compound `Cc1ncoc1-c1nnc(SCCCN2CC3CC3(c3ccc(S(F)(F)(F)(F)F)cc3)C2)n1C` (racemic), the Ki in [2] was 0.158 µM. For the same compound, the IC50 is over 10 µM in series [3]; 9 µM in series [4]; over 10 µM in series [5]; 8 µM in series [6]; over 10 µM in series [7]; over 10 µM in [8]. Besides, the clearance (as a rule, the rate of elimination divided by the concentration) in [10] came out at 8 mL/min/kg. In [11], the half-life (usually how long it takes for the measured level to halve) is 4.4 h. In series [12], the Vd (usually the apparent volume that relates the amount in the body to the concentration in plasma or blood) is 2.8 L/kg. In addition, the bioavailability (as a rule, dose-corrected exposure relative to a reference, in per cent) in series [13] worked out at 87%. For the same compound, the time to peak (Tmax) (in general, the time from dosing to the highest level) in series [14] is 2.7 h. Besides, the Kp in [15] came out at 2.2.
Consider `Cc1ncoc1-c1nnc(SCCCN2CC3CC3(c3cccc(S(F)(F)(F)(F)F)c3)C2)n1C` (single isomer, unassigned; 12), for which the Ki was 0.000631 µM in series [1] and 0.0316 µM in series [2]. Further, the IC50 in series [3] is over 10 µM; in [4], 2 µM; in series [5], 3 µM; in series [6], 2 µM; in [7], over 10 µM; in [8], over 10 µM. In [9], inhibition was half-maximal at 1.26 µM (IC50).
The compound `Cc1ncoc1-c1nnc(SCCCN2CC3CC3(c3ccc(C(F)(F)F)cc3)C2)n1C` (racemic) yielded a clearance in [10] of 14 mL/min/kg. For the same compound, the Tmax in [14] came out at 1.5 h. The Kp in series [15] came to 2.3.
In the case of `Cc1ncoc1-c1nnc(SCCCN2CC3CC3(c3ccc(S(F)(F)(F)(F)F)cc3)C2)n1C` (stereo in doubt; 8), the inhibition constant Ki in [1] is 0.001 µM; in series [2] it was 0.158 µM. Besides, the 50% inhibitory concentration (IC50) in series [3] is 8 µM; in [4], 9 µM; in [5] it was over 10 µM; in series [6], over 10 µM; in series [7], over 10 µM; in [8] it was over 10 µM.
As to `Cc1ncoc1-c1nnc(SCCCN2CC3CC3(c3ccc(S(F)(F)(F)(F)F)cc3)C2)n1C` (single isomer, unassigned), the inhibitory constant (Ki) in series [1] is 0.0126 µM; in [2], 0.251 µM. For the same compound, the half-maximal inhibitory concentration (IC50) in series [3] was 7 µM; in [4] it was 9 µM; in [5], over 10 µM; in [6], over 10 µM; in series [7] it was over 10 µM; in [8], over 10 µM.
On to `Cc1ncoc1-c1nnc(SCCCN2CC3CC3(c3cccc(S(F)(F)(F)(F)F)c3)C2)n1C` (single isomer, unassigned; 11), for which the inhibition constant (Ki) in [1] was 0.0158 µM; in [2], over 3.16 µM. The IC50 was over 10 µM in series [3]; 2 µM in series [4]; 4 µM in [5]; 5 µM in series [6]; over 10 µM in series [7]; over 10 µM in [8]. This compound also showed a 50% inhibitory concentration (IC50) in series [9] of 2 µM.
As to `Cc1ncoc1-c1nnc(SCCCN2CC3CC3(c3cccc(C(F)(F)F)c3)C2)n1C` (racemic), the IC50 is over 10 µM in series [3]; over 10 µM in series [4]; 5 µM in series [5]; over 10 µM in series [6]; over 10 µM in series [7]; over 10 µM in series [8].
